Format in all cases: biochemical
The target in test [1] is T1, MMP-8 (Neutrophil Collagenase) (Homo sapiens, UniProt P22894).
T1 construct: Active recombinant truncated form (met^80-gly^242) was obtained according to the protocol of Knauper; made in house
The test is described as follows: P218 quenched fluorescence assay, MMP-8. The source says:
(§1) P218 Quenched Fluorescence Assay for MMP Inhibition:
(§2) This assay is adapted from the one described by Knight et al., FEBS Letters, 296, 263-266 (1992) for MMP-3 and a related substrate. The rate of hydrolysis of the synthetic substrate H-MCA-Pro-Lys-Pro-Leu-Ala-Leu-DPA-Ala-Arg-NH2 (P218) by the respective MMPs is monitored fluorometrically, using an excitation wavelength of 340 nm and an emission wavelength of 395 nm, in the presence or absence of the test compounds. The substrate is made up initially in 100% DMSO to a concentration of 1×10^−2 M, then diluted in assay buffer to a final concentration of 20 μM. […] The total assay volume in a 96 well microtitre plate is 150 μl, Cleavage of the substrate between the Leu-Ala residues allows the fluorescence of the MCA group to be detected on a fluorometer (Cytofluor II) following excitation at 340 nm and emission at 395 nm. Change in fluorescence is continually monitored for a 40 min period.
(§3) The Ki's are calculated using the method described by Williams and Morrison, Methods in Enzymology, 63, 437-467 (1979) to measure Ki apparent for tight binding inhibitors, and is summarised as follows: [I]0/(1−vi/v0)=Ki apparent ×vi/v0+[E]0 [I]0 and [E]0 are inhibitor and enzyme concentrations, and vi/v0 are reaction velocities with/without inhibitor. […]
(§4) IC50's are determined at each enzyme concentration using Xlfit software. […]

Test [2] deals with T2, MMP-7 (Matrilysin) (Homo sapiens, UniProt P09237).
T2 construct: Catalytic domain expressed in E. coli using the pET 14 vector, provided by Dr Steve Shapiro; host or cells: E. coli
T2 sequence (P09237 95-267): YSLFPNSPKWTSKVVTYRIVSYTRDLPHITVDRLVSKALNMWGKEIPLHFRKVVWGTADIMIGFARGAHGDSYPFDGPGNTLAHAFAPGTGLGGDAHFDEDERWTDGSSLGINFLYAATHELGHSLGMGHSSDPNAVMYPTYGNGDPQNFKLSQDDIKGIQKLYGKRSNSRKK
The test is described as follows: P218 quenched fluorescence assay, MMP-7.
Text: as §1, §2, §3, §4

For test [3], the target named is T3, MMP-1 (Human Gingival Fibroblast Interstitial Collagenase) (Homo sapiens, UniProt P03956).
T3 construct: Jack Windsor (supplied, not bought)
T3 sequence (P03956 100-469): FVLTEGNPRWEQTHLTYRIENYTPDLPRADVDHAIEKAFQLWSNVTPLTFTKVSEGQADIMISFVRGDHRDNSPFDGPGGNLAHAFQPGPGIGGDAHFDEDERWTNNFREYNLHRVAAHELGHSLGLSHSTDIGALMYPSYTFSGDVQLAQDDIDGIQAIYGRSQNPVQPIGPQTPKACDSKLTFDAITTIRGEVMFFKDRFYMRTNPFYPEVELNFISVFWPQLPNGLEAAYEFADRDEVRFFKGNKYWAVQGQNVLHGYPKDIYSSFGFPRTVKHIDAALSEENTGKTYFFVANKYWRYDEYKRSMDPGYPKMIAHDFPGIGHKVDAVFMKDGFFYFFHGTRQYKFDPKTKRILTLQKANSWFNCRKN
The test is described as follows: P218 quenched fluorescence assay, MMP-1. The following applies: read-out: Potency Ki vs. MMP-1.
Text: as §1, §2, §3, §4

The target of test [4] is MMP-13 (Human Collagenase 3) (Homo sapiens, UniProt P45452). The test is described as follows: P218 quenched fluorescence assay, MMP-13 (human).
Text: as §1, §2, §3, §4

By Ki is commonly meant a dissociation constant, usually derived from enzyme kinetics or from competition with a known ligand. As usually defined, the IC50 is the midpoint of a concentration-inhibition curve.

A value given as a limit tells only on which side of the number the result lay.

T1 sequence (P22894 100-262): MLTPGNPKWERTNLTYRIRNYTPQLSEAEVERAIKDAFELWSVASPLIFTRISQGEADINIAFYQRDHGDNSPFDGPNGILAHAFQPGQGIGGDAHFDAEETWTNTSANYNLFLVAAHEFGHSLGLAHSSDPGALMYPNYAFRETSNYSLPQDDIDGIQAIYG

Take `O=C(CC(CCN1C(=O)c2ccccc2C1=O)C(=O)O)c1ccc(-c2ccc(Cl)cc2)cc1` (single isomer, unassigned; (+)) [Example 4, (+)-4-(4′-Chloro[1,1′-biphenyl]4-yl)-2-[2-(1,3-dioxo-1,3-dihydro-2H-isoindol-2-yl)ethyl]-4-oxobutanoic acid]: the inhibition constant (Ki) in test [1] (read-out: Potency Ki vs. MMP-8) was 7.5 nM; in test [2] (read-out: Potency Ki vs. MMP-7), above 3000 nM; in test [3], 639 nM; in test [4] (read-out: Potency Ki vs. MMP-13), 5.6 nM.
Take `CCOc1ccc(-c2ccc(C(=O)CC(CCN3C(=O)c4ccccc4C3=O)C(=O)O)cc2)cc1` (single isomer, unassigned; (+)) [Example 2, (+)-2-[2-(1,3-Dioxo-1,3-dihydro-2H-isoindol-2-yl)ethyl]-4-(4′-ethoxy[1,1′-biphenyl]-4-yl)-4-oxobutanoic acid]: the IC50 worked out at 21.6 nM in test [1] (read-out: IC50 vs. MMP-8 (value marked *)) and 70 nM in test [4] (read-out: IC50 vs. MMP-13 (value marked *)). In test [2] (at 30 nM, read-out: % inh. of MMP-7), the inhibition at 0.03 µM worked out at 38%. In test [3], the Ki was above 3000 nM.

For the origin of these results see US6900194B1, “Use of substituted 4-biarylbutyric and 5-biarylpentanoic acid derivatives as matrix metalloprotease inhibitors for the treatment of respiratory diseases” (Bayer Aktiengesellschaft, priority 1998, dated 2005).
